In patent publication US20250034170A1, “SMALL MOLECULE MODULATORS OF GLUCOCEREBROSIDASE ACTIVITY AND USES THEREOF” (Vanqua Bio, Inc., priority 2021, published 2025):

molecular target: T1, GCase (Homo sapiens, UniProt P04062); experiment: activation of GCase in a live cell PFB assay in HELA cells; format: cell-based; conditions: EC50 given as range classes
T1 construct: endogenous in cells; host or cells: HeLa cells
T1 sequence (P04062 40-536): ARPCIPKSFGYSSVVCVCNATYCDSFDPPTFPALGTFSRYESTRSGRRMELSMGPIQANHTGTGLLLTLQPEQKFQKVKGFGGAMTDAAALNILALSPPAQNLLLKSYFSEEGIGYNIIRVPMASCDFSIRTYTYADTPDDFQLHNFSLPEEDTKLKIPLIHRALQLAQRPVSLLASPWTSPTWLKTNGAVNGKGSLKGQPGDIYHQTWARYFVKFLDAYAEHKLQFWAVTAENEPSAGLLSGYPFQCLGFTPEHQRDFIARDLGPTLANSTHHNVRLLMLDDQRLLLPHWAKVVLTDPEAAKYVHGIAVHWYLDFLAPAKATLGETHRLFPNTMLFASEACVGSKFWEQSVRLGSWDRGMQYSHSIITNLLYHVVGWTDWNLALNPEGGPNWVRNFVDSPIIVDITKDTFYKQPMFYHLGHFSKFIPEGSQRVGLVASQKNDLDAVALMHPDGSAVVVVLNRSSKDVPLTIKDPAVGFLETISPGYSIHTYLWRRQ
Procedure: Exemplary compounds were evaluated for activation of GCase in a live cell PFB assay in HELA cells (essentially as described in Ysselstein et al., “LRRK2 kinase activity regulates lysosomal glucocerebrosidase in neurons derived from Parkinson's disease patients” Nature Communications (2019) 10:5570). […] EC50 ranges: A: <10 μM; B: >10-50 μM; C: >50-100 μM; D: >100 μM.

Compound | EC50 [µM]
Cc1nc(N2CCC3(CC2)CCN(c2cnc4cnn(C5COC5)c4n2)C3)cc(C(F)(F)F)n1 [Cmpd 583] | > 100
Cc1ncc(N2CC3(CCN(c4cnc5cnn(CC(F)F)c5n4)C3)C2)c(C(F)(F)F)n1 [Cmpd 592] | > 100
Cc1ncc(N2CC3(CCN(c4cnc5c(C)nn(CC(F)F)c5n4)C3)C2)c(C(F)(F)F)n1 [Cmpd 593] | > 100
Cc1ncc(N2CC3(CCN(c4cnc5cnn(CC(F)(F)F)c5n4)C3)C2)c(C(F)(F)F)n1 [Cmpd 594] | > 100
Cc1ncc(N2CC3(CCN(c4cnc5cnn(C6COC6)c5n4)C3)C2)c(C(F)(F)F)n1 [Cmpd 597] | > 100
Cc1ncc(N2CC3(CCN(c4ncc5c(C)nn(C6COC6)c5n4)C3)C2)c(C(F)(F)F)n1 [Cmpd 600] | 50 to 100
Cc1nc(N2CCC3(CCN(c4cnc5c(C)nn(CC(F)(F)F)c5n4)C3)C2)cc(C(F)(F)F)n1 (stereo not shown) [Cmpd 604] | > 100
Cc1nn(CC(F)(F)F)c2nc(N3CCC4(CN(c5cnc(C(F)(F)F)nc5)C4)C3)cnc12 [Cmpd 605] | > 100
Cc1ncc(N2CC3(CCN(c4cnc5c(C)nn(CC(F)(F)F)c5n4)C3)C2)c(C(F)(F)F)n1 [Cmpd 606] | 50 to 100
Cc1nc(N2CC3(CCN(c4cnc5c(C)nn(CC(F)(F)F)c5n4)C3)C2)cc(C(F)(F)F)n1 [Cmpd 608] | 50 to 100
Cc1nc(N2CCC3(CCN(c4cnc5c(C)nn(CC(F)(F)F)c5n4)CC3)C2)cc(C(F)(F)F)n1 [Cmpd 611] | > 100
Cc1nc(N2CC3(CCN(c4cc5c(cn4)c(C)nn5CC(F)F)C3)C2)cc(C(F)(F)F)n1 [Cmpd 612] | 50 to 100
Cc1nc(N2CCC3(CCN(c4ncc5c(C)nn(CC(F)(F)F)c5n4)C3)C2)cc(C(F)(F)F)n1 (stereo not shown) [Cmpd 616] | 10 to 50
Cc1nc(N2CCC3(C2)CN(c2ncc4c(C)nn(CC(F)(F)F)c4n2)C3)cc(C(F)(F)F)n1 [Cmpd 617] | 10 to 50
Cc1nc(N2CC3(CCN(c4ncc5c(C)nn(CC(F)(F)F)c5n4)CC3)C2)cc(C(F)(F)F)n1 [Cmpd 618] | 10 to 50
Cc1nc(N2CCC3(CCN(c4ncc5c(C)nn(CC(F)(F)F)c5n4)CC3)C2)cc(C(F)(F)F)n1 [Cmpd 619] | 10 to 50
Cc1ncc(N2CC3(CCN(c4ncc5c(C)nn(CC(F)(F)F)c5n4)C3)C2)c(C(F)(F)F)n1 [Cmpd 620] | 10 to 50
Cc1nc(N2CC3(CCN(c4ccc5cnn(CC(F)F)c5n4)C3)C2)cc(C(F)(F)F)n1 [Cmpd 621] | 10 to 50
Cc1nc(N2CC3(CCN(c4ccc5c(C)nn(CC(F)F)c5n4)C3)C2)cc(C(F)(F)F)n1 [Cmpd 622] | 10 to 50
Cc1nc(N2CC3(CCN(c4ncc5cnn(C(C)(C)C)c5n4)C3)C2)cc(C(F)(F)F)n1 [Cmpd 629] | 10 to 50
Cc1nc(N2CCC3(CCN(c4cc5c(cn4)c(C)nn5CC(F)F)CC3)C2)cc(C(F)(F)F)n1 [Cmpd 630] | 10 to 50
Cc1nc(N2CC3(CCN(c4cc5c(cn4)cnn5CC(F)F)C3)C2)cc(C(F)(F)F)n1 [Cmpd 631] | 10 to 50

More lines, now with the values ahead:

EC50 [µM] | Compound
10 to 50 | Cc1nc(N2CCC3(C2)CN(c2cnc4c(C)nn(CC(F)F)c4n2)C3)cc(C(F)(F)F)n1 [Cmpd 578]
10 to 50 | Cc1nc(N2CCC3(CC2)CCN(c2cnc4cnn(CC(F)F)c4n2)C3)cc(C(F)(F)F)n1 [Cmpd 579]
10 to 50 | Cc1nc(N2CCC3(CC2)CCN(c2cnc4cnn(CC(F)(F)F)c4n2)C3)cc(C(F)(F)F)n1 [Cmpd 580]
10 to 50 | Cc1nc(N2CCC3(CC2)CCN(c2ncc4cnn(CC(F)F)c4n2)C3)cc(C(F)(F)F)n1 [Cmpd 581]
10 to 50 | Cc1nc(N2CCC3(CC2)CCN(c2cnc4c(C)nn(CC(F)F)c4n2)C3)cc(C(F)(F)F)n1 [Cmpd 582]
10 to 50 | Cc1nc(N2CCC3(CC2)CN(c2cnc4cnn(C5COC5)c4n2)C3)cc(C(F)(F)F)n1 [Cmpd 584]
< 10 | Cc1nc(N2CCC3(CC2)CN(c2cnc4c(C)nn(CC(F)F)c4n2)C3)cc(C(F)(F)F)n1 [Cmpd 585]
10 to 50 | Cc1nc(N2CCC3(CC2)CN(c2ncc4cnn(CC(F)F)c4n2)C3)cc(C(F)(F)F)n1 [Cmpd 586]
10 to 50 | Cc1nc(N2CCC3(CC2)CN(c2cnc4cnn(CC(F)(F)F)c4n2)C3)cc(C(F)(F)F)n1 [Cmpd 587]
< 10 | Cc1nc(N2CCC3(CC2)CN(c2cnc4cnn(CC(F)F)c4n2)C3)cc(C(F)(F)F)n1 [Cmpd 588]
10 to 50 | Cc1nc(N2CC3(CCN(c4ncc5cnn(C6COC6)c5n4)C3)C2)cc(C(F)(F)F)n1 [Cmpd 589]
10 to 50 | Cc1cc(N2CC3(CCN(c4ncc5cnn(C6COC6)c5n4)C3)C2)nc(C(F)(F)F)n1 [Cmpd 590]
< 10 | Cc1ncc(N2CC3(CCN(c4ncc5c(C)nn(CC(F)F)c5n4)C3)C2)c(C(F)(F)F)n1 [Cmpd 591]
< 10 | Cc1ncc(N2CC3(CCN(c4ncc5cnn(CC(F)F)c5n4)C3)C2)c(C(F)(F)F)n1 [Cmpd 595]
< 10 | Cc1ncc(N2CC3(CCN(c4ncc5cnn(CC(F)(F)F)c5n4)C3)C2)c(C(F)(F)F)n1 [Cmpd 596]
10 to 50 | Cc1ncc(N2CC3(CCN(c4ncc5cnn(C6COC6)c5n4)C3)C2)c(C(F)(F)F)n1 [Cmpd 598]
10 to 50 | Cc1ncc(N2CC3(CCN(c4cnc5c(C)nn(C6COC6)c5n4)C3)C2)c(C(F)(F)F)n1 [Cmpd 599]

EC50 [µM] | Compound
< 10 | Cc1ncc(N2CCC3(CCN(c4cnc5cnn(CC(F)F)c5n4)CC3)C2)c(C(F)(F)F)n1 [Cmpd 601]
10 to 50 | Cc1ncc(N2CCC3(CCN(c4cnc5c(C)nn(CC(F)F)c5n4)CC3)C2)c(C(F)(F)F)n1 [Cmpd 602]
10 to 50 | Cc1nn(CC(F)(F)F)c2nc(N3CCC4(CCN(c5cnc(C(F)(F)F)nc5)C4)C3)cnc12 (stereo not shown) [Cmpd 603]
10 to 50 | Cc1cc(N2CC3(CCN(c4cnc5c(C)nn(CC(F)(F)F)c5n4)C3)C2)nc(C(F)(F)F)n1 [Cmpd 607]
10 to 50 | Cc1nc(N2CCC3(C2)CN(c2cnc4c(C)nn(CC(F)(F)F)c4n2)C3)cc(C(F)(F)F)n1 [Cmpd 609]
< 10 | Cc1nc(N2CC3(CCN(c4cnc5c(C)nn(CC(F)(F)F)c5n4)CC3)C2)cc(C(F)(F)F)n1 [Cmpd 610]
< 10 | Cc1nc(N2CC3(CCN(c4cc5c(cn4)c(C)nn5CC(F)F)CC3)C2)cc(C(F)(F)F)n1 [Cmpd 613]
10 to 50 | Cc1nc(N2CC3(CCN(c4cc5c(cn4)c(C)nn5CC(F)F)CC3)CC2=O)cc(C(F)(F)F)n1 [Cmpd 614]
10 to 50 | Cc1nn(CC(F)(F)F)c2nc(N3CCC4(CCN(c5cnc(C(F)(F)F)nc5)C4)C3)ncc12 (stereo not shown) [Cmpd 615]
< 10 | Cc1nc(N2CC3(CCN(c4ccc5cnn(CC(F)F)c5n4)CC3)C2)cc(C(F)(F)F)n1 [Cmpd 623]
< 10 | Cc1nc(N2CC3(CCN(c4ccc5c(C)nn(CC(F)F)c5n4)CC3)C2)cc(C(F)(F)F)n1 [Cmpd 624]
< 10 | Cc1nc(N2CCC3(CCN(c4ccc5cnn(CC(F)F)c5n4)CC3)C2)cc(C(F)(F)F)n1 [Cmpd 625]
< 10 | Cc1nc(N2CCC3(CCN(c4ccc5c(C)nn(CC(F)F)c5n4)CC3)C2)cc(C(F)(F)F)n1 [Cmpd 626]
< 10 | Cc1nc(N2CC3(CCN(c4ccc5cnn(CC(F)F)c5n4)CC3)CC2=O)cc(C(F)(F)F)n1 [Cmpd 627]
< 10 | Cc1nc(N2CC3(CCN(c4ccc5c(C)nn(CC(F)F)c5n4)CC3)CC2=O)cc(C(F)(F)F)n1 [Cmpd 628]
< 10 | Cc1nc(N2CC3(CCN(c4cc5c(cn4)cnn5CC(F)F)CC3)C2)cc(C(F)(F)F)n1 [Cmpd 632]
< 10 | Cc1nc(N2CCC3(CCN(c4cc5c(cn4)cnn5CC(F)F)CC3)C2)cc(C(F)(F)F)n1 [Cmpd 633]

same assay, conditions: activation of GCase, EC50 ranges

EC50 [µM] | Compound
10 to 50 | Cc1nc(N2CCC3(C2)CN(c2ncc4c(C)nn(CC(F)F)c4n2)C3)cc(C(F)(F)F)n1 [Cmpd 577]
< 10 | Cc1nc(N2CC3(CCN(c4cc5c(cn4)cnn5CC(F)F)CC3)CC2=O)cc(C(F)(F)F)n1 [Cmpd 634]
< 10 | FC(F)Cn1ncc2ncc(N3CCC4(C3)CN(c3ccnc(C(F)(F)F)c3)C4)cc21 [Cmpd 635]
< 10 | Cc1nc(N2CC3(CCN(c4cnc5cnn(CC(F)F)c5c4)C3)C2)cc(C(F)(F)F)n1 [Cmpd 636]
10 to 50 | Cc1nc(N2CC3(CCN(c4ccc5nccn5n4)C3)C2)cc(C(F)(F)F)n1 [Cmpd 637]
10 to 50 | Cc1cn2nc(N3CCC4(CN(c5cc(C(F)(F)F)nc(C)n5)C4)C3)ccc2n1 [Cmpd 638]
10 to 50 | Cc1cc(N2CC3(CCN(c4cnc5cnn(CC(F)F)c5n4)C3)C2)nc(C)n1 [Cmpd 639]
10 to 50 | Cc1cc(N2CC3(CCN(c4cnc5c(C)nn(CC(F)F)c5n4)C3)C2)nc(C)n1 [Cmpd 640]
10 to 50 | Cc1cc(N2CC3(CCN(c4ncc5c(C)nn(CC(F)F)c5n4)C3)C2)nc(C)n1 [Cmpd 641]
10 to 50 | Cc1cc(N2CC3(CCN(c4ncc5cnn(CC(F)F)c5n4)C3)C2)nc(C)n1 [Cmpd 642]
10 to 50 | Cc1cc(N2CC3(CCN(c4ncc5cnn(C6COC6)c5n4)C3)C2)nc(C)n1 [Cmpd 643]
10 to 50 | Cc1cc(N2CC3(CCN(c4ncc5c(C)nn(C6COC6)c5n4)C3)C2)nc(C)n1 [Cmpd 644]
10 to 50 | Cc1cc(N2CC3(CCN(c4cnc5c(C)nn(C6COC6)c5n4)C3)C2)nc(C)n1 [Cmpd 645]
10 to 50 | Cc1cc(N2CC3(CCN(c4cnc5cnn(C6COC6)c5n4)C3)C2)nc(C)n1 [Cmpd 646]
